According to ChEMBL document CHEMBL1201862, “PubChem BioAssay data set” (2004):
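Protocol summary: plate cells (96-well), add compound at 5 concentrations, incubate 48 h, interpolate endpoints linearly. Abbreviation: GI50, concentration required for 50% inhibition of growth.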 The source made the active and inactive calls. No stated cut-off is given here; in the data, active = GI50 up to about 1.1 µM and inactive = higher.

What was measured:
Test in all cases: NCI tumour cell line growth inhibition, 48 h
OVCAR-8 = system: OVCAR-8
HT-29 = system: HT-29
SN12C = system: SN12C
Malme-3M = system: Malme-3M
SK-MEL-28 = system: SK-MEL-28
TK-10 = system: TK-10
SNB-19 = system: SNB-19
UACC-62 = system: UACC-62
COLO 205 = system: COLO 205
KM12 = system: KM12
HCT-15 = system: HCT-15
DMS-273 = system: DMS-273
XF498 = system: XF498
NCI-H522 = system: NCI-H522
SR = system: SR
OVCAR-4 = system: OVCAR-4
K562 = system: K562
MOLT-4 = system: MOLT-4
HOP-92 = system: HOP-92
UO-31 = system: UO-31
NCI-H23 = system: NCI-H23
IGROV-1 = system: IGROV-1
M14 = system: M14
OVCAR-3 = system: OVCAR-3
U-251 = system: U-251
DLD-1 = system: DLD-1
CAKI-1 = system: CAKI-1
HCC 2998 = system: HCC 2998
SK-MEL-2 = system: SK-MEL-2
SK-OV-3 = system: SK-OV-3
SK-MEL-5 = system: SK-MEL-5
RXF 393 = system: RXF 393
KM-20L2 = system: KM-20L2
SW-620 = system: SW-620
SF-295 = system: SF-295
SNB-78 = system: SNB-78
CCRF-CEM = system: CCRF-CEM
OVCAR-5 = system: OVCAR-5
LXFL 529 = system: LXFL 529
RPMI-8226 = system: RPMI-8226
LOX IMVI = system: LOX IMVI
ACHN = system: ACHN
DMS-114 = system: DMS-114
SNB-75 = system: SNB-75
HCT-116 = system: HCT-116
HOP-62 = system: HOP-62
EKVX = system: EKVX
UACC-257 = system: UACC-257
HL-60 = system: HL-60
M19-MEL = system: M19-MEL
NCI-H460 = system: NCI-H460
NCI-H226 = system: NCI-H226
SF-268 = system: SF-268

O=C(N/C(=C\c1ccc(Br)cc1)c1nc2ccccc2[nH]1)c1ccccc1
GI50 (OVCAR-8): 21 µM (inactive) | GI50 (HT-29): 18.1 µM (inactive) | GI50 (SN12C): 18.4 µM (inactive) | GI50 (Malme-3M): 22.9 µM (inactive) | GI50 (SK-MEL-28): 15.8 µM (inactive) | GI50 (TK-10): 30.1 µM (inactive) | GI50 (SNB-19): 18.4 µM (inactive) | GI50 (UACC-62): 18.8 µM (inactive) | GI50 (COLO 205): 18.9 µM (inactive) | GI50 (KM12): 17.5 µM (inactive) | GI50 (HCT-15): 16.3 µM | GI50 (DMS-273): 24.3 µM (inactive) | GI50 (XF498): 15.9 µM (inactive) | GI50 (NCI-H522): 14.5 µM (inactive) | GI50 (SR): 18.3 µM (inactive) | GI50 (OVCAR-4): 13.3 µM (inactive) | GI50 (K562): 15.8 µM (inactive) | GI50 (MOLT-4): 17.6 µM (inactive) | GI50 (HOP-92): 11.6 µM (inactive) | GI50 (UO-31): 15.6 µM (inactive) | GI50 (NCI-H23): 17.1 µM (inactive) | GI50 (IGROV-1): 24.7 µM (inactive) | GI50 (M14): 18.2 µM (inactive) | GI50 (OVCAR-3): 19.1 µM (inactive) | GI50 (U-251): 17.3 µM (inactive) | GI50 (DLD-1): 17.5 µM (inactive) | GI50 (CAKI-1): 23.3 µM (inactive) | GI50 (HCC 2998): 17.2 µM (inactive) | GI50 (SK-MEL-2): 16.3 µM (inactive) | GI50 (SK-OV-3): 34.6 µM (inactive) | GI50 (SK-MEL-5): 19.8 µM (inactive) | GI50 (RXF 393): 16.4 µM (inactive) | GI50 (KM-20L2): 15.1 µM (inactive) | GI50 (SW-620): 16.1 µM (inactive) | GI50 (SF-295): 28 µM (inactive) | GI50 (SNB-78): 21.9 µM (inactive) | GI50 (CCRF-CEM): 19.9 µM (inactive) | GI50 (OVCAR-5): 14.9 µM (inactive) | GI50 (LXFL 529): 13.6 µM (inactive)

CN1C2CCC1/C(=C/c1cccc3c1OCO3)C(=O)/C2=C\c1cccc2c1OCO2
GI50 (OVCAR-8): > 100 µM (inactive) | GI50 (HT-29): > 100 µM (inactive) | GI50 (RPMI-8226): > 100 µM (inactive) | GI50 (LOX IMVI): > 100 µM (inactive) | GI50 (SN12C): > 100 µM (inactive) | GI50 (ACHN): > 100 µM (inactive) | GI50 (Malme-3M): > 100 µM (inactive) | GI50 (SK-MEL-28): > 100 µM (inactive) | GI50 (TK-10): 21.3 µM (inactive) | GI50 (UACC-62): 14.3 µM (inactive) | GI50 (DMS-114): > 100 µM (inactive) | GI50 (COLO 205): > 100 µM (inactive) | GI50 (KM12): > 100 µM (inactive) | GI50 (HCT-15): > 100 µM | GI50 (DMS-273): 45 µM (inactive) | GI50 (XF498): 25.3 µM (inactive) | GI50 (SR): > 100 µM (inactive) | GI50 (K562): > 10 µM (inactive) | GI50 (MOLT-4): > 100 µM (inactive) | GI50 (HOP-92): 22.8 µM (inactive) | GI50 (UO-31): > 100 µM (inactive) | GI50 (NCI-H23): > 100 µM (inactive) | GI50 (IGROV-1): 30.1 µM (inactive) | GI50 (M14): 59 µM (inactive) | GI50 (OVCAR-3): 87.3 µM (inactive) | GI50 (U-251): 24.5 µM (inactive) | GI50 (DLD-1): > 100 µM (inactive) | GI50 (SNB-75): 11.1 µM (inactive) | GI50 (HCT-116): > 100 µM (inactive) | GI50 (HCC 2998): > 100 µM (inactive) | GI50 (SK-MEL-2): > 100 µM (inactive) | GI50 (HOP-62): 12.3 µM (inactive) | GI50 (EKVX): > 100 µM (inactive) | GI50 (UACC-257): > 100 µM (inactive) | GI50 (SK-OV-3): 85.7 µM (inactive) | GI50 (SK-MEL-5): 37.9 µM (inactive) | GI50 (RXF 393): 11.3 µM (inactive) | GI50 (KM-20L2): > 100 µM (inactive) | GI50 (SW-620): > 100 µM (inactive) | GI50 (HL-60): > 100 µM (inactive) | GI50 (SF-295): 22.1 µM (inactive) | GI50 (M19-MEL): > 100 µM (inactive) | GI50 (NCI-H460): > 100 µM (inactive) | GI50 (CCRF-CEM): 78 µM (inactive) | GI50 (OVCAR-5): > 100 µM (inactive) | GI50 (LXFL 529): > 100 µM (inactive) | GI50 (NCI-H226): > 100 µM (inactive) | GI50 (SF-268): 47.6 µM (inactive)
